According to ChEMBL document CHEMBL4145540 (Eur J Med Chem, 2018):
The source made the active and inactive calls. The calls are words filed in the database; no cut-off is given here.

Tests used:
HT-29 = experiment: Antiproliferative activity against human HT-29 cells after 2 days by MTT assay; type: functional, cell-based; settings: HT-29, 48 h
MCF7 = experiment: Antiproliferative activity against human MCF7 cells after 2 days by MTT assay; type: functional, cell-based; settings: MCF7, 48 h
HeLa = experiment: Antiproliferative activity against human HeLa cells after 2 days by MTT assay; type: functional, cell-based; settings: 48 h
A549 [1] = experiment: Antiproliferative activity against human A549 cells after 2 days by MTT assay; type: functional, cell-based; settings: A549, 48 h
HL-60 = experiment: Antiproliferative activity against human HL60 cells after 2 days by MTT assay; type: functional, cell-based; settings: HL-60, 48 h
HMEC-1 = experiment: Antiproliferative activity against HMEC1 cells after 2 days by MTT assay; type: functional, cell-based; settings: Homo sapiens, HMEC-1, 48 h
HEK293 = experiment: Antiproliferative activity against HEK293 cells after 2 days by MTT assay; type: cell-based; settings: Homo sapiens, HEK293, 48 h
MDA-MB-231 = experiment: Antiproliferative activity against human MDA-MB-231 cells after 3 days by coulter counting method; type: functional, cell-based; settings: MDA-MB-231, 72 h
A549 [2] = experiment: Cell cycle arrest in human A549 cells assessed as accumulation at sub-G0 phase at 750 nM after 20 hrs by propidium iodide staining based flow cytometry (reference value: 6.6 +/- 0.1%); type: functional
A549 [3] = experiment: Cell cycle arrest in human A549 cells assessed as accumulation at S phase at 750 nM after 20 hrs by propidium iodide staining based flow cytometry (reference value: 16 +/- 1%); type: functional
A549 [4] = experiment: Cell cycle arrest in human A549 cells assessed as accumulation at G2/M phase at 750 nM after 20 hrs by propidium iodide staining based flow cytometry (reference value: 11 +/- 1%); type: functional
[5] = Selectivity index, ratio of IC50 for antiproliferative activity against HEK293 cells to IC50 for antiproliferative activity against human MCF7 cells; type: toxicity, cell-based; settings: HEK293 cells versus MCF7 cells, read-out: Ratio IC50
[6] = Selectivity index, ratio of IC50 for antiproliferative activity against HEK293 cells to IC50 for antiproliferative activity against human HT-29 cells; type: toxicity, cell-based; settings: HEK293 cells versus HT-29 cells, read-out: Ratio IC50
[7] = Selectivity index, ratio of IC50 for antiproliferative activity against HEK293 cells to IC50 for antiproliferative activity against human HeLa cells; type: toxicity, cell-based; settings: HEK293 cells versus HeLa cells, read-out: Ratio IC50
[8] = Selectivity index, ratio of IC50 for antiproliferative activity against HEK293 cells to IC50 for antiproliferative activity against human HL60 cells; type: toxicity, cell-based; settings: HEK293 cells versus HL60 cells, read-out: Ratio IC50
A549 [9] = experiment: Disruption of microtubule network in human A549 cells assessed as appearance of tubulin aggregates at 260 nM after 16 hrs by Hoechst staining based immunofluorescence assay; type: cell-based
A549 [10] = experiment: Disruption of microtubule network in human A549 cells assessed as appearance of compressed and fragmented nuclei at 260 nM after 16 hrs by Hoechst staining based immunofluorescence assay; type: cell-based
A549 [11] = experiment: Cell cycle arrest in human A549 cells assessed as accumulation at sub-G0 phase at 65 nM after 20 hrs by propidium iodide staining based flow cytometry (reference value: 6.6 +/- 0.1%); type: functional
A549 [12] = experiment: Cell cycle arrest in human A549 cells assessed as accumulation at G0/G1 phase at 65 nM after 20 hrs by propidium iodide staining based flow cytometry (reference value: 66 +/- 1%); type: functional
A549 [13] = experiment: Cell cycle arrest in human A549 cells assessed as accumulation at S phase at 65 nM after 20 hrs by propidium iodide staining based flow cytometry (reference value: 16 +/- 1%); type: functional
A549 [14] = experiment: Cell cycle arrest in human A549 cells assessed as accumulation at G2/M phase at 65 nM after 20 hrs by propidium iodide staining based flow cytometry (reference value: 11 +/- 1%); type: functional
A549 [15] = experiment: Cell cycle arrest in human A549 cells assessed as accumulation at sub-G0 phase at 200 nM after 20 hrs by propidium iodide staining based flow cytometry (reference value: 6.6 +/- 0.1%); type: functional
A549 [16] = experiment: Cell cycle arrest in human A549 cells assessed as accumulation at G0/G1 phase at 200 nM after 20 hrs by propidium iodide staining based flow cytometry (reference value: 66 +/- 1%); type: functional
A549 [17] = experiment: Cell cycle arrest in human A549 cells assessed as accumulation at S phase at 200 nM after 20 hrs by propidium iodide staining based flow cytometry (reference value: 16 +/- 1%); type: functional
A549 [18] = experiment: Cell cycle arrest in human A549 cells assessed as accumulation at G2/M phase at 200 nM after 20 hrs by propidium iodide staining based flow cytometry (reference value: 11 +/- 1%); type: functional
Bos taurus [19] = organism: Bos taurus; experiment: Inhibition of calf brain tubulin polymerization after 60 mins by turbidimetric method
Bos taurus [20] = organism: Bos taurus; experiment: Inhibition of calf brain tubulin polymerization in glycerol-assembly buffer assessed as critical concentration for tubulin assembly at 27.5 uM measured every 30 secs for 2 hrs in presence of GTP
A549 [21] = experiment: Cell cycle arrest in human A549 cells assessed as accumulation at sub-G0 phase at 50 nM after 20 hrs by propidium iodide staining based flow cytometry (reference value: 6.6 +/- 0.1%); type: functional
A549 [22] = experiment: Cell cycle arrest in human A549 cells assessed as accumulation at G0/G1 phase at 50 nM after 20 hrs by propidium iodide staining based flow cytometry (reference value: 66 +/- 1%); type: functional
A549 [23] = experiment: Cell cycle arrest in human A549 cells assessed as accumulation at S phase at 50 nM after 20 hrs by propidium iodide staining based flow cytometry (reference value: 16 +/- 1%); type: functional
A549 [24] = experiment: Cell cycle arrest in human A549 cells assessed as accumulation at G2/M phase at 50 nM after 20 hrs by propidium iodide staining based flow cytometry (reference value: 11 +/- 1%); type: functional

Row | Compound | IC50 (HT-29) [nM] | IC50 (MCF7) [nM] | IC50 (HeLa) [nM] | IC50 (A549 [1]) [nM] | IC50 (HL-60) [nM] | IC50 (MDA-MB-231) [nM] | IC50 (HMEC-1) [nM] | IC50 (HEK293) [nM] | selectivity ratio [5] | selectivity ratio [6] | selectivity ratio [7] | selectivity ratio [8] | Activity (A549 [9]) | Activity (A549 [10]) | Activity (A549 [11]) [%] | Activity (A549 [12]) [%] | Activity (A549 [13]) [%] | Activity (A549 [14]) [%] | further results
1 | COc1ccc(/C=C\c2cc(OC)c(OC)c(OC)c2)cc1NC(=O)Oc1cc(C)cc(C)c1 | 260 | 210 | 130 | 1540 | 620 | 12 | 180 | 150 |  |  |  |  |  |  |  |  |  |  | Activity (A549 [2]): 22%; Activity (A549 [3]): 16%; Activity (A549 [4]): 38%
2 | COc1ccc(/C=C\c2cc(OC)c(OC)c(OC)c2)cc1NC(=O)Oc1ccc(F)cc1 | 60 | 95.4 | 60 | 400 | 50 | 13.8 | 65 | 185 | 2 to 11 | 2 to 11 | 2 to 11 | 2 to 11 |  |  |  |  |  |  | Activity (A549 [15]): 21%; Activity (A549 [16]): 26%; Activity (A549 [17]): 19%; Activity (A549 [18]): 34%
3 | COc1ccc(/C=C\c2cc(OC)c(OC)c(OC)c2)cc1O [COMBRETASTATIN A4] |  |  | 2100 | 130 | 4000 |  | 3400 |  |  |  |  |  |  |  |  |  |  |  | inhibition (Bos taurus [19]): Active; Activity (Bos taurus [20]): 22 µM; Activity (A549 [21]): 15%; Activity (A549 [22]): 21%; Activity (A549 [23]): 22%; Activity (A549 [24]): 43%

Second part, led by results:

Row | IC50 (HT-29) [nM] | IC50 (MCF7) [nM] | IC50 (HeLa) [nM] | IC50 (A549 [1]) [nM] | IC50 (HL-60) [nM] | IC50 (MDA-MB-231) [nM] | Compound | IC50 (HMEC-1) [nM] | IC50 (HEK293) [nM] | selectivity ratio [5] | selectivity ratio [6] | selectivity ratio [7] | selectivity ratio [8] | Activity (A549 [9]) | Activity (A549 [10]) | Activity (A549 [11]) [%] | Activity (A549 [12]) [%] | Activity (A549 [13]) [%] | Activity (A549 [14]) [%] | further results
4 | 17.8 | 10.1 | 5 | 130 | 3.7 | 13.8 | COc1ccc(/C=C\c2cc(OC)c(OC)c(OC)c2)cc1NC(=O)Oc1ccccc1Cl | 50 | 41 | 2 to 11 | 2 to 11 | 2 to 11 | 2 to 11 | Active | Active | 16 | 29 | 12 | 43 | 
5 | 13 | 56 | 40 | 130 | 4 | 14.2 | COc1ccc(/C=C\c2cc(OC)c(OC)c(OC)c2)cc1NC(=O)Oc1cccc(C(F)(F)F)c1 | 16 | 42.2 |  |  |  |  | Active | Active | 16 | 28 | 15 | 41 | 
